Experiments:
[1] = test system: Tetranychus urticae resistant to organic phosphorous agents; experiment: Efficacy against Tetranychus urticae (spray on kidney bean plants); type: in vivo; conditions: 125 ppm wettable powder sprayed on kidney bean plants, female adults, 25° C., 3 days later
Description: After inoculating the first true leaves of kidney bean plants planted in a no. 3 pot for which 7 to 10 days had elapsed since germination with female adult Tetranychus urticae resistant to organic phosphorous agents, a chemical liquid diluted with water to a compound concentration of 125 ppm was sprayed onto the kidney bean plants in accordance with the formula of the wettable powder indicated in the aforementioned Preparation Example 1. The kidney bean plants were placed in a constant temperature chamber at a temperature of 25° C. and humidity of 65% and insect mortality rate was investigated 3 days later. The test was repeated twice.

Spodoptera litura = experiment: Efficacy against Spodoptera litura (cabbage leaf dip); type: in vivo; conditions: 125 ppm emulsion, cabbage leaves immersed, 2nd instar larvae, 25° C., 5 days later
Experimental: (§1) The emulsion indicated in the aforementioned Preparation Example 2 was diluted with water to a compound concentration of 125 ppm in accordance with the formula thereof. After immersing cabbage leaves in the chemical liquid for 30 seconds and allowing to air dry, the cabbage leaves were placed in a Petri dish lined with filter paper and inoculated with five 2nd instar Spodoptera litura larvae. A glass cover was placed over the Petri dish, the dish was placed in a constant temperature chamber at a temperature of 25° C. and humidity of 65%, and viability was investigated 5 days later followed by determination of insect mortality rate. The test was repeated twice.

Pseudaletia separata = experiment: Efficacy against Pseudaletia separata (corn leaf dip); type: in vivo; conditions: 125 ppm wettable powder, corn leaves immersed, 2nd instar larvae, 25° C., 5 days later
Experimental: as §1, with “The wettable powder” for “The emulsion”, “Example 1” for “Example 2”, “immersing corn” for “immersing cabbage”, “the corn” for “the cabbage”, “instar Pseudaletia separata” for “instar Spodoptera litura”

Culex pipiens molestus = experiment: Efficacy against Culex pipiens molestus (larvae in water); conditions: in vivo
Experimental: 0.225 ml of distilled water containing 10 Culex pipiens molestus larvae 1 day after hatching and aquarium fish food (TetraMin, Tetra Japan) were placed in a 0.3 ml polystyrene test container.
The compounds were prepared as 1% solutions using DMSO (containing 0.5% Tween 20), and further diluted to 0.01% with distilled water. 0.025 ml of the diluted chemical liquid were added to the test container containing the Culex pipiens molestus larvae followed by stirring (final compound concentration: 0.001%).
Insect mortality rates were invested 2 days after allowing to stand at 25° C. The test was repeated twice.

Aphis gossypii = experiment: Efficacy against Aphis gossypii (spray on infested cucumber plants); type: in vivo; conditions: 125 ppm emulsion sprayed on cucumber plants infested with nymphs, 25° C., 5 days later
Description: Cucumber plants planted in a no. 3 pot for which 10 days had elapsed since germination were inoculated with adult Aphis gossypii. The adult insects were removed after 1 day, and a chemical liquid diluted with water to a compound concentration of 125 ppm was sprayed onto the cucumber plants infested with nymphs laid by the adults in accordance with the emulsion formula indicated in the aforementioned Preparation Example 2. The cucumber plants were placed in a constant temperature chamber at a temperature of 25° C. and humidity of 65% and insect viability was investigated 5 days later followed by determination of insect mortality rate. The test was repeated twice.

Q: Which insect mortality rate [1] does the source give for Cc1cc(Cl)ccc1N=CN(C)C [chlordimeform] here?
A: 40%

Q: And the insect mortality rate (Spodoptera litura)?
A: 40%

Q: And the insect mortality rate (Pseudaletia separata)?
A: 40%

Q: For “N-{[5-(3,5-dichlorophenyl)-5-trifluoromethyl-4,5-dihydroisoxazol-3-yl]indan-1-yl}-propionic acid amide [1-6]”, which insect mortality rate (Culex pipiens molestus) is on record?
A: ≥ 90%

Q: How did the insect mortality rate (Aphis gossypii) turn out when Cc1nc(N(C)C)nc(OC(=O)N(C)C)c1C [pirimicarb] was run?
A: 9%

— patent US8288393B2, “Nitrogen-containing heterocyclic compound and pest control agent” (Nippon Soda Co., Ltd., priority 2007, dated 2012)
